From patent US8986696B2, “Trans-capsular administration of p38 map kinase inhibitors into orthopedic joints” (DePuy Mitek, Inc., priority 2007, dated 2015)
Read-outs that look alike come from different tables or passages of the source.

What was measured:
[1] = tested on: injured cartilage explants, GAG release; assay: drop tower design model: GAG release; format: cell-based, bovine; settings: injured cartilage explants, inflammatory conditions
Text: The device comprises a vertical rail that guides a sliding weight from 0.1 kg to 3 kg directly onto a force transducer which is situated at the bottom of the device. A sphere-shaped 2 mm indenter resting on a specimen is located at the bottom of the vertical rail. The indenter is held by a stop screw. The specimen is rigidly attached to a tissue holder underneath the indenter, to avoid side movements, the specimen is rigidly attached to the tissue holder. In this manner, the force transducer transduces a force indirectly onto the specimen. Adjusting the weight of a mass and height from which the mass drops varies the magnitude of the intended impact. For example, a weight mass (e.g., […]) held by a weight holder can be released from a height of e.g., 36 cm and dropped onto the force transducer.
Samples for compound evaluation were tested using either of two different methods to induce inflammatory conditions. One method utilized media conditioned from peripheral blood mononuclear cells (PBMCs) stimulated with LPS (“+LPS”) or non-inflammatory media without LPS (“−LPS”). Another method utilized the absence or presence of a cocktail of cytokines.
In the first method, bovine or human PBMCs were freshly prepared using Ficoll gradient by Lampire Biological Laboratories, Inc. PBMCs in RPMI w/10% FCS at delivery were spun down at 1500 rpm for twenty minutes and the cell pellet was washed twice with 1×PBS to wash off the residual Ficoll. The cells were then resuspended at a density of 1×10^6/ml in RPMI supplemented with 10% FCS, 1× Antibiotics-Antimycotics. The suspension was divided into two aliquots. One aliquot was stimulated with 10 μg/ml of LPS and the other was not stimulated. Both aliquots were then incubated at 37° C., 5% CO2 for twenty-four to seventy-two hours. The conditioned media with or without LPS stimulation are collected, aliquoted, and stored in −80° C. for a maximum of three months. Each conditioned medium was assessed for levels of pro-inflammatory cytokines to ensure their secretion from PBMC. A representative cytokine, IL-6, was assayed by ELISA using a Human IL-6 Quantikine kit and it was shown that the LPS-stimulated medium had at least 10 ng/ml of IL-6, while IL-6 was undetectable in the unstimulated medium.
In the second method, the explants were cultured at 37° C., 5% CO2 either in stimulated or non-stimulated conditioned medium as described above or in defined medium containing DMEM supplemented with 1% FCS, 1× insulin-transferrin-sodium selenite media supplement and Antibiotics-Antimycotics in the presence or absence of a cocktail of cytokines containing 10 ng/ml of IL-1β, 100 ng/ml of TNFα and 5 ng/ml of IFN-γ. The compounds were solubilized in H2O, Ethanol or DMSO (10^−2 M) according to suppliers' instructions and further diluted with either conditioned medium stimulated with or without LPS to the required concentrations. DMSO concentrations in the culture media never exceeded 1%. This concentration of DMSO has no effect on cartilage proteoglycan metabolism in response to cytokines. The injured and noninjured cartilage explants were treated with compound-containing medium for three to five days. The specimens were first treated with compounds at desired concentrations at 37° C. for one hour and then incubated for three to five days in the absence or presence of the cocktail of cytokines. At the end of the incubation, media and cartilage samples were harvested and frozen for further analysis.
Glycosaminoglycan (GAG) levels in the culture media or cartilage were determined by measuring the amount of polyanionic material reacting with 1,9-dimethylmethylene blue (DME) as detected by absorbance at 525 nm, using shark chondroitin sulfate as a standard. The DME blue dye-binding solution was prepared by dissolving 16 mg of DME blue in a solution containing 0.304% glycine, 0.23% NaCl, 9.5 mM HCl, pH=3.0 with A525 equaling 0.31. […]

[2] = tested on: chondrocytes; format: cell-based
Method in brief: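 Bovine chondrocyte pellets (calf articular cartilage, or alginate-recovered chondrocyte tissue punches) pretreated with compounds 1 h at 37 °C, then incubated 3-5 days with or without 10 ng/ml IL-1β, DMSO ≤1%. Media LDH activity measured colorimetrically via lactate-to-pyruvate conversion reducing INT tetrazolium to formazan.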

[3] = within the tested concentrations

CC(=O)Oc1cccc2c1C(=O)c1c(OC(C)=O)cc(C(=O)O)cc1C2=O [Diacerein, reference compound]
GAG, inhibition of degradation/release [1]: completely inhibited

OCCC#Cc1nc(-c2ccc(F)cc2)c(-c2ccncc2)n1CCCc1ccccc1 [JNJ 3026582 (RWJ 67657), 4-[4-(4-fluorophenyl)-1-(3-phenylpropyl)-5-(4-pyridinyl)-1H-imidazol-2-yl]-3-butyn-1-ol]
cytotoxicity to chondrocytes (LDH, words) [2, 3]: little cytoxicity
GAG, inhibition of degradation/release [1]: little efficacy

C[C@H](Nc1nccc(-c2c(-c3ccc(F)cc3)nc3nc(N)ccn23)n1)c1ccccc1 [JNJ 7583979 (RWJ 351958)]
cytotoxicity to chondrocytes (LDH, words) [2, 3]: little cytoxicity
GAG, inhibition of degradation/release [1]: little efficacy
GAG, inhibition of degradation/release ([1]; listed as JNK 7583979 (RWJ 351958)): little

CC(=O)N1CCN(c2c(-c3ccncc3)c(-c3ccc(F)cc3)c(C#N)n2C)CC1 [JNJ 17089540 (RWJ 669307)]
cytotoxicity to chondrocytes (LDH, words) [2]: little cytoxicity
